Experimental data as given in PubChem BioAssay (NCI).
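All cell lines were grown in 96-well plates and treated with compound for 48 hours. The concentration for 50% growth inhibition is given as GI50. TGI denotes the concentration required for complete inhibition of growth.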

Experiments:
Assay in all cases: NCI-60 cell line screen, 48 h
MDA-MB-231 breast = test system: MDA-MB-231 breast
OVCAR-8 ovarian = test system: OVCAR-8 ovarian
HOP-92 NSCLC = test system: HOP-92 NSCLC
SF-295 CNS = test system: SF-295 CNS
SN12C renal = test system: SN12C renal
NCI/ADR-RES ovarian = test system: NCI/ADR-RES ovarian
UO-31 renal = test system: UO-31 renal
UACC-257 melanoma = test system: UACC-257 melanoma
PC-3 prostate = test system: PC-3 prostate
OVCAR-4 ovarian = test system: OVCAR-4 ovarian

## CN(CSc1ccc(Cl)cc1)c1ccc(CSc2ccc(Cl)cc2)cc1
MDA-MB-231 breast
  GI50: 1800 nM
  TGI: 5.9 µM
OVCAR-8 ovarian
  GI50: 13.6 µM
  TGI: 39.8 µM
HOP-92 NSCLC
  GI50: 3560 nM
  TGI: 16.9 µM
SF-295 CNS
  GI50: 2860 nM
  TGI: 13.7 µM
SN12C renal
  GI50: 1820 nM
  TGI: 15.9 µM
NCI/ADR-RES ovarian
  GI50: 8000 nM
  TGI: 30.1 µM
UO-31 renal
  GI50: 1060 nM
  TGI: 4.18 µM
UACC-257 melanoma
  GI50: 10.3 µM
  TGI: 34.8 µM
PC-3 prostate
  GI50: 3.27 µM
  TGI: 25.8 µM
OVCAR-4 ovarian
  GI50: 3.15 µM
  TGI: 20 µM

## N#C/C(=C\c1ccc(F)cc1)n1nc2cccc(F)c2n1
MDA-MB-231 breast
  GI50: 5550 nM
  TGI: > 100 µM
OVCAR-8 ovarian
  GI50: 5.06 µM
  TGI: > 100 µM
HOP-92 NSCLC
  GI50: 2100 nM
  TGI: 9.15 µM
SF-295 CNS
  GI50: 3530 nM
  TGI: > 100 µM
SN12C renal
  GI50: 3840 nM
  TGI: > 100 µM
NCI/ADR-RES ovarian
  GI50: 2990 nM
  TGI: 14.8 µM
UO-31 renal
  GI50: 3650 nM
  TGI: > 100 µM
PC-3 prostate
  GI50: 4.68 µM
  TGI: > 100 µM
OVCAR-4 ovarian
  GI50: 4.19 µM
  TGI: > 100 µM

## O=C1c2cccnc2C(=O)c2c1c(C(=O)OCCc1ccccn1)c1ccccn21
MDA-MB-231 breast
  GI50: 1480 nM
  TGI: > 100 µM
OVCAR-8 ovarian
  GI50: 0.0589 µM
  TGI: 2.12 µM
HOP-92 NSCLC
  GI50: 121 nM
  TGI: 5.58 µM
SF-295 CNS
  GI50: 342 nM
  TGI: 1.77 µM
SN12C renal
  GI50: 26.1 nM
  TGI: 1.59 µM
NCI/ADR-RES ovarian
  GI50: 25.2 nM
  TGI: 1.15 µM
UO-31 renal
  GI50: < 11.7 nM
  TGI: 0.387 µM
UACC-257 melanoma
  GI50: 0.152 µM
  TGI: 0.583 µM
PC-3 prostate
  GI50: 0.0563 µM
  TGI: 6.57 µM
OVCAR-4 ovarian
  GI50: 1.13 µM
  TGI: 8.39 µM

## CCCCN(CC)CCCCCCCCCCN1CCCc2cc(OC)ccc21
MDA-MB-231 breast
  GI50: 2260 nM
  TGI: 7.04 µM
OVCAR-8 ovarian
  GI50: 3.92 µM
  TGI: 13.2 µM
HOP-92 NSCLC
  GI50: 2190 nM
  TGI: 6.76 µM
SF-295 CNS
  GI50: 1800 nM
  TGI: 3.72 µM
SN12C renal
  GI50: 3360 nM
  TGI: 15.3 µM
NCI/ADR-RES ovarian
  GI50: 2070 nM
  TGI: 6.15 µM
UO-31 renal
  GI50: 2080 nM
  TGI: 11.3 µM
UACC-257 melanoma
  GI50: 3.34 µM
  TGI: 9.2 µM
PC-3 prostate
  GI50: 3.06 µM
  TGI: 12.7 µM
OVCAR-4 ovarian
  GI50: 4.33 µM
  TGI: 19.6 µM

## O=c1[nH]c2ccccc2n2cc3ccccc3c12
MDA-MB-231 breast
  GI50: 948 nM
  TGI: 10.2 µM
OVCAR-8 ovarian
  GI50: 5.28 µM
  TGI: 33.3 µM
HOP-92 NSCLC
  GI50: 3990 nM
  TGI: 18.5 µM
SF-295 CNS
  GI50: 17900 nM
  TGI: 35.8 µM
SN12C renal
  GI50: 1670 nM
  TGI: 6.32 µM
NCI/ADR-RES ovarian
  GI50: 6450 nM
  TGI: 32.1 µM
UO-31 renal
  GI50: 12600 nM
  TGI: 26.6 µM
UACC-257 melanoma
  GI50: 15.3 µM
  TGI: 33.1 µM
PC-3 prostate
  GI50: 5.74 µM
  TGI: 29.1 µM
OVCAR-4 ovarian
  GI50: 7.2 µM
  TGI: 89.7 µM

## CCN(CC)CC(O)COc1c(Br)c(Br)c(Br)c2c1OC(C)(C)C2 (stereo not drawn)
MDA-MB-231 breast
  GI50: 2440 nM
  TGI: 6.08 µM
OVCAR-8 ovarian
  GI50: 11.4 µM
  TGI: 36.7 µM
HOP-92 NSCLC
  GI50: 1350 nM
  TGI: 6.05 µM
SF-295 CNS
  GI50: 1100 nM
  TGI: 2.71 µM
SN12C renal
  GI50: 6220 nM
  TGI: 19.8 µM
NCI/ADR-RES ovarian
  GI50: 7690 nM
  TGI: 25.5 µM
UO-31 renal
  GI50: 5820 nM
  TGI: 26.5 µM
UACC-257 melanoma
  GI50: 2.67 µM
  TGI: 4.87 µM
PC-3 prostate
  GI50: 2.81 µM
  TGI: 11.5 µM
OVCAR-4 ovarian
  GI50: 6.56 µM
  TGI: 22.8 µM

## Cc1cc(=O)oc2cc(OC(=O)Nc3ccccc3)ccc12
MDA-MB-231 breast
  TGI: > 100 µM
OVCAR-8 ovarian
  TGI: > 100 µM
HOP-92 NSCLC
  TGI: 75.4 µM
SF-295 CNS
  TGI: > 100 µM
SN12C renal
  TGI: > 100 µM
NCI/ADR-RES ovarian
  TGI: > 100 µM
UO-31 renal
  TGI: > 100 µM
UACC-257 melanoma
  TGI: > 100 µM
PC-3 prostate
  TGI: > 100 µM
OVCAR-4 ovarian
  TGI: > 100 µM

## CC1(C)OC2C(CO)OC(n3ccc(N)nc3=O)C2O1 (stereo not drawn)
MDA-MB-231 breast
  TGI: > 100 µM
OVCAR-8 ovarian
  TGI: > 100 µM
HOP-92 NSCLC
  TGI: > 100 µM
SF-295 CNS
  TGI: > 100 µM
SN12C renal
  TGI: > 100 µM
NCI/ADR-RES ovarian
  TGI: > 100 µM
UO-31 renal
  TGI: > 100 µM
UACC-257 melanoma
  TGI: > 100 µM
PC-3 prostate
  TGI: > 100 µM

## Cn1c(NCC(CN2CCCC2)OC(=O)c2ccccc2)cc(=O)n(C)c1=O (stereo not drawn)
MDA-MB-231 breast
  GI50: > 100000 nM
  TGI: > 100 µM
OVCAR-8 ovarian
  GI50: > 100 µM
  TGI: > 100 µM
HOP-92 NSCLC
  GI50: > 100000 nM
  TGI: > 100 µM
SF-295 CNS
  GI50: > 100000 nM
  TGI: > 100 µM
SN12C renal
  GI50: > 100000 nM
  TGI: > 100 µM
NCI/ADR-RES ovarian
  GI50: > 100000 nM
  TGI: > 100 µM
UO-31 renal
  GI50: > 100000 nM
  TGI: > 100 µM
UACC-257 melanoma
  GI50: > 100 µM
  TGI: > 100 µM
PC-3 prostate
  GI50: > 100 µM
  TGI: > 100 µM
OVCAR-4 ovarian
  GI50: > 100 µM
  TGI: > 100 µM

## O=C1C=CC(=O)N1c1ccc(I)cc1
MDA-MB-231 breast
  TGI: 52.7 µM
OVCAR-8 ovarian
  TGI: > 100 µM
HOP-92 NSCLC
  TGI: 46.6 µM
SF-295 CNS
  TGI: 55.5 µM
SN12C renal
  TGI: 48 µM
NCI/ADR-RES ovarian
  TGI: 82.3 µM
UO-31 renal
  TGI: 38.5 µM
UACC-257 melanoma
  TGI: 32.5 µM
PC-3 prostate
  TGI: 40.7 µM
OVCAR-4 ovarian
  TGI: 60.2 µM

## FC(F)(F)c1cc(-c2ncn(/C=C\c3nnco3)n2)cc(C(F)(F)F)c1
MDA-MB-231 breast
  GI50: 132 nM
  TGI: > 73.9 µM
OVCAR-8 ovarian
  GI50: 0.0589 µM
  TGI: > 47.7 µM
HOP-92 NSCLC
  GI50: 39.1 nM
  TGI: 4.87 µM
SF-295 CNS
  GI50: 63.4 nM
  TGI: > 43.3 µM
SN12C renal
  GI50: 417 nM
  TGI: > 100 µM
NCI/ADR-RES ovarian
  GI50: 304 nM
  TGI: > 63.5 µM
UO-31 renal
  GI50: 151 nM
  TGI: > 100 µM
UACC-257 melanoma
  GI50: 0.0673 µM
  TGI: > 66.4 µM
PC-3 prostate
  GI50: 0.093 µM
  TGI: > 36.9 µM
OVCAR-4 ovarian
  GI50: 0.0442 µM

## N#Cc1c2ccccc2c2nnc3ccc(C(F)(F)F)cc3n12
MDA-MB-231 breast
  GI50: 88100 nM
  TGI: > 100 µM
OVCAR-8 ovarian
  GI50: 43.8 µM
  TGI: > 100 µM
HOP-92 NSCLC
  GI50: 91600 nM
  TGI: > 100 µM
SF-295 CNS
  GI50: 42700 nM
  TGI: > 100 µM
SN12C renal
  GI50: > 100000 nM
  TGI: > 100 µM
NCI/ADR-RES ovarian
  GI50: 72700 nM
  TGI: > 100 µM
UO-31 renal
  GI50: 85600 nM
  TGI: > 100 µM
UACC-257 melanoma
  GI50: 21.2 µM
  TGI: 76.3 µM
PC-3 prostate
  GI50: 61.1 µM
  TGI: > 100 µM
OVCAR-4 ovarian
  GI50: 97.9 µM
  TGI: > 100 µM

## O=C(O)CNCCc1ccccc1
MDA-MB-231 breast
  TGI: > 100 µM
OVCAR-8 ovarian
  TGI: > 100 µM
HOP-92 NSCLC
  TGI: > 100 µM
SF-295 CNS
  TGI: > 100 µM
SN12C renal
  TGI: > 100 µM
NCI/ADR-RES ovarian
  TGI: > 100 µM
UO-31 renal
  TGI: > 100 µM
PC-3 prostate
  TGI: > 100 µM
OVCAR-4 ovarian
  TGI: > 100 µM

## CCC(C)(C)[C@H](NC(=O)[C@H]1CCCCN1C)C(=O)N(C)[C@H](C[C@@H](OC(C)=O)c1nc(C(=O)N[C@@H](Cc2ccccc2)C[C@H](C)C(=O)O)cs1)C(C)C
MDA-MB-231 breast
  GI50: < 1.67 nM
OVCAR-8 ovarian
  GI50: < 0.00167 µM
  TGI: > 16.7 µM
HOP-92 NSCLC
  GI50: 6.61 nM
  TGI: > 16.7 µM
SF-295 CNS
  GI50: < 1.67 nM
SN12C renal
  GI50: < 1.67 nM
  TGI: > 16.7 µM
NCI/ADR-RES ovarian
  GI50: 3.42 nM
  TGI: > 16.7 µM
UO-31 renal
  GI50: 8.73 nM
  TGI: > 16.7 µM
UACC-257 melanoma
  GI50: > 16.7 µM
  TGI: > 16.7 µM
PC-3 prostate
  GI50: < 0.00167 µM
  TGI: > 16.7 µM
OVCAR-4 ovarian
  GI50: 0.00798 µM
  TGI: > 16.7 µM
